Measurements from ChEMBL document CHEMBL4184103, “Cytotoxicity and inhibition of leukemic cell proliferation by sesquiterpenes from rhizomes of Mah-Lueang (Curcuma cf. viridiflora Roxb.)” (Bioorg Med Chem Lett, 2018).
Values after ≈ are worked out from the molar mass of the structure shown. Values joined by “and” are separate entries in the source; they are usually repeats but may differ in a detail not shown here. Identical values can stand only once.

Assays:
MOLT-4 [1] = assay: Down regulation of WT1 protein levels in human MOLT4 cells after 48 hrs by Western blot analysis relative to control; format: functional
MOLT-4 [2] = assay: Cytotoxicity against human MOLT4 cells assessed as reduction in cell viability after 48 hrs by MTT assay; format: functional, cell-based
KG-1a [3] = assay: Cytotoxicity against human KG1a cells assessed as reduction in cell viability after 48 hrs by MTT assay; format: functional, cell-based
Ca-Ski = assay: Cytotoxicity against human CaSki cells assessed as reduction in cell viability after 72 hrs by MTT assay; format: functional, cell-based
KG-1a [4] = assay: Down regulation of WT1 protein levels in human KG1a cells after 48 hrs by Western blot analysis relative to control; format: functional
HUVEC = assay: Cytotoxicity against human HUVEC cells assessed as reduction in cell viability after 72 hrs by MTT assay; format: functional, cell-based
HT-29 = assay: Cytotoxicity against human HT-29 cells assessed as reduction in cell viability after 72 hrs by MTT assay; format: functional, cell-based
KG-1a [5] = assay: Antiproliferative activity against human KG1a cells at IC20 after 48 hrs by trypan blue exclusion assay relative to control; format: functional
PC-3 [6] = assay: Cytotoxicity against human PC3 cells assessed as reduction in cell viability after 72 hrs by MTT assay; format: functional, cell-based
MCF7 [7] = assay: Cytotoxicity against human MCF7 cells assessed as reduction in cell viability after 72 hrs by MTT assay; format: functional, cell-based
MOLT-4 [8] = assay: Antiproliferative activity against human MOLT4 cells at IC20 after 48 hrs by trypan blue exclusion assay relative to control; format: functional
MOLT-4 [9] = assay: Down regulation of WT1 protein levels in human MOLT4 cells at 5 to 15 uM after 48 hrs by Western blot analysis relative to control; format: functional
HT-1080 = assay: Growth inhibition of human HT1080 cells after 48 hrs by MTT assay; format: functional, cell-based; conditions: HT-1080, 48 h
HepG2 = assay: Growth inhibition of human HepG2 cells after 48 hrs by MTT assay; format: functional, cell-based; conditions: HepG2, 48 h
MOLT-4 [10] = assay: Potency index, ratio of doxorubicin IC50 to compound IC50 for human MOLT4 cells; format: functional
KG-1a [11] = assay: Potency index, ratio of doxorubicin IC50 to compound IC50 for human KG1a cells; format: functional
SGC-7901 = assay: Growth inhibition of human SGC7901 cells after 48 hrs by MTT assay; format: functional, cell-based; conditions: SGC-7901, 48 h
HL-60 = assay: Growth inhibition of human HL60 cells after 48 hrs by MTT assay; format: functional, cell-based; conditions: HL-60, 48 h
HeLa = assay: Growth inhibition of human HeLa cells after 48 hrs by MTT assay; format: functional, cell-based
PC-3 [12] = assay: Growth inhibition of human PC3 cells after 48 hrs by MTT assay; format: functional, cell-based; conditions: PC-3, 48 h
MOLT-4 [13] = assay: Cytotoxicity against human MOLT4 cells assessed as reduction in cell viability; format: functional, cell-based
NCI-H187 = assay: Cytotoxicity against human NCI-H187 cells assessed as reduction in cell viability; format: functional, cell-based
KB = assay: Cytotoxicity against human KB cells assessed as reduction in cell viability; format: functional, cell-based
MCF7 [14] = assay: Cytotoxicity against human MCF7 cells assessed as reduction in cell viability; format: functional, cell-based
[15] = Homo sapiens, MOLT-4, 48 h, read-out: IC50

Row | Structure (SMILES) | Activity (MOLT-4 [1]) [%] | IC50 (MOLT-4 [2]; molt-4) | IC20 (KG-1a [3]) [µg/mL] | IC50 (KG-1a [3]) [µg/mL] | Activity (KG-1a [4]) [%] | Activity (KG-1a [5]) [%] | Activity (MOLT-4 [8]) [%] | IC50 (MOLT-4 [2]; [15]) [µg/mL] | other results
1 | CC(C)=C1CC(=O)[C@@H](C)CC/C=C(\C)CC1=O | 55.25 | > 100 µg/mL and 35 µg/mL | 30 (≈ 128 µM) | > 100 | 44.3 | 19.92 | 49.44 |  | IC50 (Ca-Ski): 21.7 µg/mL (≈ 92.6 µM); IC50 (HUVEC; huvec): 24 µg/mL (≈ 102 µM); IC50 (HT-29; ht-29): 22.7 µg/mL (≈ 96.9 µM); IC50 (PC-3 [6]; pc-3): 19.1 µg/mL (≈ 81.5 µM); IC50 (MCF7 [7]; mcf7): 33 µg/mL (≈ 141 µM)
2 | CC(C)=C1C[C@@H]2O[C@@]2(C)CC/C=C(\C)CC1=O | 62.53 | 53 µg/mL (≈ 226 µM) | 20 (≈ 85.3 µM) | > 100 | 92.22 | 24.27 | 55.7 | > 100 | IC50 (HUVEC; Homo sapiens, HUVEC, 72 h): 48.4 µg/mL (≈ 207 µM); IC50 (HT-29; Homo sapiens, HT-29, 72 h): 39.6 µg/mL (≈ 169 µM); IC50 (PC-3 [6]; Homo sapiens, PC-3, 72 h): 43.9 µg/mL (≈ 187 µM); IC50 (MCF7 [7]; Homo sapiens, MCF7, 72 h): 37.2 µg/mL (≈ 159 µM)
3 | COc1cc(/C=C/C(=O)CC(=O)/C=C/c2ccc(O)c(OC)c2)ccc1O [CURCUMIN] |  |  |  |  |  |  |  |  | Activity (MOLT-4 [9]): 90%
4 | COc1cccc2c1C(=O)c1c(O)c3c(c(O)c1C2=O)C[C@@](O)(C(=O)CO)C[C@@H]3O[C@H]1C[C@H](N)[C@H](O)[C@H](C)O1 [DOXORUBICIN] |  |  |  | 0.65 (≈ 1.2 µM) |  |  |  | 0.46 (≈ 0.846 µM) | 
5 | C/C1=C\Cc2c(C)coc2C/C(C)=C/CC1 [ISOFURANODIENE] | 32.17 | 23 µg/mL (≈ 106 µM) | 25 (≈ 116 µM) | 50.1 (≈ 232 µM) | 58.08 | 19.58 | 10.74 | 39.6 (≈ 183 µM) | IC50 (HT-1080): 0.6 to 4 µg/mL (≈ 2.77 to 18.5 µM); IC50 (HepG2): 0.6 to 4 µg/mL (≈ 2.77 to 18.5 µM); Ratio IC50 (MOLT-4 [10]): 86; Ratio IC50 (KG-1a [11]): 77; IC50 (SGC-7901): 0.6 to 4 µg/mL (≈ 2.77 to 18.5 µM); IC50 (HL-60): 0.6 to 4 µg/mL (≈ 2.77 to 18.5 µM); IC50 (HeLa): 0.6 to 4 µg/mL (≈ 2.77 to 18.5 µM); IC50 (PC-3 [12]): 0.6 to 4 µg/mL (≈ 2.77 to 18.5 µM)
6 | CC[C@]1(O)C[C@H]2CN(CCc3c([nH]c4ccccc34)[C@@](C(=O)OC)(c3cc4c(cc3OC)N(C=O)[C@H]3[C@@](O)(C(=O)OC)[C@H](OC(C)=O)[C@]5(CC)C=CCN6CC[C@]43[C@@H]65)C2)C1 [VINCRISTINE] |  |  |  |  |  |  |  |  | IC50 (MOLT-4 [13]): 0.00063 µg/mL (≈ 0.000764 µM)
7 | CC(C)=C1C[C@H]2[C@@H](CC[C@]2(C)O)[C@](C)(O)CC1=O [ZEDOARONDIOL] | 63.17 | 49 µg/mL (≈ 194 µM) | 60 (≈ 238 µM) | > 100 | 95.52 | 30.48 | 48.99 | 77.6 (≈ 308 µM) | IC50 (NCI-H187): > 50 µg/mL; IC50 (KB): > 50 µg/mL; IC50 (MCF7 [14]): > 50 µg/mL
